Here are results for 3 substances from patent US10383948B2, “Anti-cMet antibody drug conjugates and methods for their use” (AbbVie Inc., priority 2016, dated 2019).

For series [1], the system named is Hs746T. The series can be described thus: Cytotoxicity assay (CellTiter-Glo, 6 days). It is filed as cell-based, human. Particulars: MET-amplified Hs746T gastric cancer cells; FIG. 4. On the procedure:
(§1) Tumor cells were plated at 2000-5000 cells/well in 180 μL growth medium containing 10% FBS in 96-well plates, and cultured at 37° C. in a humidified incubator with 5% C02. The following day, titrations of antibodies or ADCs in 20 μL were added and cells were incubated for 6 days. Cell viability was determined using a CellTiter-Glo Luminescent Cell Viability Assay (Promega) according to the manufacturer's instructions. A non-binding, irrelevant negative control ADC conjugated to MMAE was also included in all assays to confirm that cell killing was antigen dependent.
(§2) Tumor cells were plated at 2000-5000 cells/well in 180 μL growth medium containing 10% FBS in 96-well plates, and cultured at 37° C. in a humidified incubator with 5% C02. The following day, titrations of ADCs in 20 μL were added and cells were incubated for 6 days. Cell viability was determined using a CellTiter-Glo Luminescent Cell Viability Assay (Promega) according to the manufacturer's instructions. A non-binding, irrelevant negative control ADC conjugated to MMAE was also included in all assays to confirm that cell killing was antigen-dependent.

In series [2] the test system is NCI-H441. The series is described as follows: Cytotoxicity assay (CellTiter-Glo, 6 days). Type of series: cell-based, human. The following applies: NCI-H441, without MET amplification; FIG. 4D. On the procedure:
as §1, §2
For orientation: Cellular ATP, detected with luciferase, serves as a proxy for viable cell number.

Series [3] has as its system NCI-H820. The series is described as follows: Cytotoxicity assay (CellTiter-Glo, 6 days). The following applies: NCI-H820, without MET amplification; FIG. 4C. Type of series: cell-based, human. The method, then:
Tumor cells were plated at 2000-5000 cells/well in 180 μL growth medium containing 10% FBS in 96-well plates, and cultured at 37° C. in a humidified incubator with 5% C02. The following day, titrations of antibodies or ADCs in 20 μL were added and cells were incubated for 6 days. Cell viability was determined using a CellTiter-Glo Luminescent Cell Viability Assay (Promega) according to the manufacturer's instructions.
Tumor cells were plated at 2000-5000 cells/well in 180 μL growth medium containing 10% FBS in 96-well plates, and cultured at 37° C. in a humidified incubator with 5% C02. The following day, titrations of ADCs in 20 μL were added and cells were incubated for 6 days. Cell viability was determined using a CellTiter-Glo Luminescent Cell Viability Assay (Promega) according to the manufacturer's instructions.

Series [4] has as its system Hs746T ABT-700R xenografts. The series can be described thus: ABT-700-refractory xenograft efficacy. The following applies: Hs746T ABT-700R xenografts; FIG. 12B. Type of series: in vivo, mice.
Series [5] deals with Hs746T gastric cancer xenografts. The series is described as follows: Hs746T xenograft efficacy. Particulars: parental Hs746T xenografts, initial treatment; FIG. 12A.
Method: Female SCID, SCID-Beige and nude mice were obtained from Charles River (Wilmington, Mass.) and housed at ten mice per cage. The body weight upon arrival was 20-22 g. Food and water were available ad libitum. Mice were acclimated to the animal facilities for a period of at least one week prior to commencement of experiments. Animals were tested in the light phase of a 12-hr light: 12-hr dark schedule (lights on at 06:00 hours).
Each experimental group included 8-10 animals.
Tumor volumes are depicted as mean±S.E.M.
Series [6] concerns SNU-5. The series is described as follows: Cytotoxicity assay (CellTiter-Glo, 6 days). It is filed as cell-based, human. The following applies: MET-amplified SNU-5 gastric cancer cells; FIG. 4. On the procedure:
as §1

For series [7] the following is noted: patients; cited from earlier work.

“ABT-700: humanized recombinant IgG1 kappa anti-cMet antibody, humanized version of mouse monoclonal antibody 224G11”: the “inhibition of proliferation” value in series [1] is “inhibited proliferation of cells with MET amplification”; in series [2], “not cell lines without MET amplification”; in series [3], “not cell lines without MET amplification”; in series [6] it was “inhibited proliferation of cells with MET amplification”. Further, the “tumor response” value is on record as “refractory to ABT-700 treatment with quick tumor outgrowth on therapy” in series [4] and “tumor stasis followed by relapse” in series [5].
With DCDT2980S: an MMAE ADC targeting CD22, in series [7], the dose not tolerated is 3.2 mg/kg and the dose tolerated is listed as 2.4 mg/kg.
Consider “brentuximab vedotin: Seattle Genetics MMAE ADC with an approximate DAR of 4”, for which the dose not tolerated in series [7] is given as 2.7 mg/kg.
